Results published in patent US12102685B2, “Immodulator peptides covalently modified with small molecules” (priority 2020, dated 2024).
Marks after values point to notes of the source that are not given here. Peptide text beside a SMILES is read from it.

Experiments:
[1] = Iron-binding competition assay with labeled IM3 (x2E c); conditions: 375 ng/well labeled IM3 plus 10x unlabeled peptide; no competing peptide = 100
Procedure: (§1) Experiments were conducted by the procedure described above. Ferric iron-charged NTA-coated 96-well plates were used as described. 1 ug/well immodulator peptide complexed to Alexa-488-labeled streptavidin in PBS buffer was added (60 min at room temperature). The plate was washed and counted in a standard fluorometer (excitation/emission: 485/525 nm). The results (fluorescence) show improved iron-binding by the three peptides extended C-terminally by the AVD, (dA)VD, and FVS tripeptides. **p<0.01 vs IM3 control IM3: 200±29; IM4: 45±37**; IM5: 130±77; IM3AVD: 434±29**; IM3dAVD: 418±28**; IM3FVS: 371±33** • (c) Competition assay. The same procedure was used as the preceding experiment, except that 375 ng/well labeled IM3 peptide was used, plus 10× of the indicated unlabeled peptide. ‘No competing peptide’ control value was set to 100. *p<0.05 vs “no peptide” control Competing Peptide/Fluorescence • None: 100±38; IM4: 125±26; IM3: 63±27*; IM5: 40±14*; IM3AVD: 10±28* • (d) Competition assay. The same procedure was used as the preceding experiment, except that labeled IM3AVD peptide was used. **p<0.01 vs “no competing peptide” control • None: 100±9; IM4: 144±44; IM3: 35±16**; IM5: 30±19**; IM3AVD: 9±19** • (e) The same procedure was used as the preceding experiment, except that each peptide was labeled with Alexa-488-labeled streptavidin in PBS buffer and used separately. Binding to IM3 was set to =100. *p<0.05, **p<0.01 vs IM3 control. (Labeled Peptide/Fluorescence) IM1: 1.8±0.4**; IM2: 3.0±1.8**; IM3: 100.0±16.8; IM4: 7.2±1.7*; IM5: 86.7±6.4; IM6: 85.9±14.9; IM3AVD:137.7±11.8*; IM3dAVD:147.4±22.9*; IM3FVS: 101.5±10.5.

A375 cells = experiment: A375 cell viability, CellTiterGlo (x10A); type: cell-based; conditions: 72 hours
Procedure: (§2) Immune modulation functions of immodulator peptides have great potential untility in the field of cancer. A375 cell line was obtained from American Type Culture Collection (ATCC). They were grown in a T-75 flask in DMEM Medium containing 10% fetal bovine serum and penicillin-streptomycin at 37° C. in a humidified, 5% CO2 incubator. Cells ([…], 2,000 cells/well) were plated in a 96-well plate and incubated overnight at 37° C. in a humidified, 5% CO2 incubator. Next day, […] of compounds were added (quadruplicate wells). After 72 hour incubation with the compound, cell viability was measured in a luminometer after the addition of […] CellTiterGlo reagent (Promega Inc, Madison, WI) as recommended by the manufacturer.
Experiment x10A. Anti-cancer activity of immodulator peptides on A375 cells. A 96-well plate was seeded with 2,000 A375 cells per well in DMEM medium containing 10% FBS and PenStrep. After 24 hrs at 37 deg C., compounds and peptides were added (each treatment done in quadruplicate). After a further 72 hours incubation, 100 uL/well of CTG assay reagent purchased from Promega Inc. (Madison, WI) was added. Plate was read after 10 minutes, as recommended by the manufacturer. Peptides were added at 2 uM. The results of this experiment are shown below, expressed as percent survival ofA375 cells.

[2] = Iron binding of separately labeled peptides (x2E e); conditions: each peptide labeled separately; IM3 = 100; ferric iron
Procedure: as §1

[3] = Strength of binding to iron, plate assay (x2E b); conditions: 1 ug/well peptide complexed to Alexa-488-streptavidin; ferric iron
Procedure: Immodulator peptides were extended C-terminally by three amino acids, to include a valine residue that is highly conserved in the “thyroglobulin type 1 motif”. The reasoning behind this attempt is that a longer conserved sequence might lead to a tighter fold overall, which might in turn result in increased metal-binding avidity. • (b) Strength of binding to iron was evaluated by plate assay.
as §1

[4] = Iron-binding competition assay with labeled IM3AVD (x2E d); conditions: labeled IM3AVD plus 10x unlabeled peptide; no competing peptide = 100
Procedure: as §1

[5] = Binding to Echelon PPI Arrays (x9B); parameters: key: 0=no binding; 1=low binding; 2=medium binding; 3=high binding; conditions: 100 pmol PPI spot, colorimetric readout
Text: Binding of immodulator peptides to Echelon PPI Arrays. PPI arrays were purchased from Echelon Biosciences (Sal Lake City, UT) and used according to the manufacturer's recommendations. Colorimetric readout from each 100 pmol PPI spot in the array is expressed as 0=no binding, 1=low binding, 2=medium binding and 3=high binding. […] In addition, IM3 and IM5 show slight binding to PI(3,4,5)P3.

[6] = Binding to heparin-agarose spin column (x3D); conditions: 1 ug SA488-labelled peptide
Procedure: 1 ug Streptavidin-Alexa 488 conjugate (SA488)-labelled IM peptide in PBS buffer was loaded on a spin column packed with 0.2 ml bed volume heparin-agarose (G-Biosciences, St. Louis, MO). The column was centrifuged for 2 min at 2,000 G and the flow-through was collected. The column was then washed with 0.3 ml 1% BSA in PBS buffer and the column spin repeated. Flowthrough and wash were pooled and duplicate 20 uL aliquots counted in a standard fluorometer (excitation/emission 485/525 nm). Results are expressed as percentage of input counts that bound the heparin-agarose column, versus flowthrough. Percent counts bound to heparin-agarose resin are shown below. IM3, IM5 and IM6 peptides bind heparin-agarose in this assay.

[7] = molecular target: T1, AA111-228 DNA-binding domain of RXR-alpha (RXRa-DBD) (Homo sapiens, UniProt P19793); experiment: Binding to RXRa-DBD (x3A); conditions: 1 ug/well RXRa-DBD, 800 ng/well SA488-labelled peptide; background subtracted
T1 construct: purchased Abcam, Cambridge, MA
T1 sequence (P19793 111-228): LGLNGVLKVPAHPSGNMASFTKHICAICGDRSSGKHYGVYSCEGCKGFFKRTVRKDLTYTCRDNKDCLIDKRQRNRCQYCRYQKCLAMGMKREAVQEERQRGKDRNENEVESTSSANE
Procedure: Binding of immodulator peptides to AA111-228 DNA-binding domain of RXR-alpha (RXRa-DBD). 1 ug/well recombinant RXRa-DBD (Abcam, Cambridge, MA) was adsorbed to wells of a 96-well plate for 60 minutes at RT, then blocked with 200 uL 1% BSA in PBS buffer overnight. Plate was washed and 800 ng/well Streptavidin-Alexa 488 conjugate (SA488)-labelled IM peptide was added. The plate was incubated for 60 min at room temperature, washed and counted in a standard fluorometer (excitation/emission 485/525 nm). Background (buffer alone) was subtracted.

[8] = Alexa488-SA-labelled IM1-IM6 binding to metal-charged NTA-coated plate (x2B d); conditions: no peptide background = 1.0
Procedure: NTA-metal-affinity fluorescence assay was performed using 96-well NTA-metal-coated plates readily available from commercial sources such as Qiagen (Germantown, MD). NTA was charged with ferrous or ferric iron, zinc, copper, calcium, vanadium, ruthenium, cobalt, titanium, manganese or other metals. 400 ng of FITC-labeled immodulator peptide (or biotinylated immodulator peptide complexed to Alexa-488-labeled streptavidin) in PBS buffer was added per plate. After incubation at room temperature for 60 minutes, excess peptide was washed off and peptide was detected by measuring fluorescence (excitation 490 nm, emmission 525 nm) in a fluorometer. • (a) Using FITC-labeled IM3 peptide (1 ug/well) in the fluorescent binding assay: • EDTA-treated control: 2,251±1,186 • Ferrous iron: 170,441±11,264 (p<0.001)* • Copper: 13,644±5566 (p<0.05)* • Calcium: 48,822±11,990 (p<0.01)* • *p values are relative to EDTA-treated control • (b) Competition binding assay to ferrous iron, calcium, copper and zinc-charged NTA-coated plates using FITC-labeled IM3 peptide (0.5 uM) and 8× (4 uM) unlabelled competitor peptides IM3N1, IM3N2 (*all comparisons to PBS control are p<0.01); # fluorescent value of binding to […] was set at 100.
Ferrous iron # (100±2.6*); Control (no metal): 6.4±3.1; Ferric iron: 94.1±6.6*; Calcium: 47.6±3.7*; Vanadium: 53.9±5.5*; Manganese: 54.4±11.2*; Cobalt: 25.4±2.3*; Copper: 58.4±6.4*; Zinc: 71.4±8.3*; Ruthenium: 67.8±8.3*; (d) Alexa488-SA-labelled immodulator peptide IM1, IM2, IM3, IM4, IM5, IM6 (400 ng/well) were bound to NTA-coated plate charged with the indicated metals: # background (no peptide) control set to 1.0;*p<0.05, **p<0.01 vs “no peptide”

[9] = system: COL1 in HFF-1 dermal fibroblasts; experiment: Collagen-1 ELISA in HFF-1 dermal fibroblasts (x11A); type: cell-based; conditions: peptide 2 uM, 72 hour; control (buffer) = 100
Procedure: as §2, with “have” for “have great”, “cosmetics. HFF-1” for “cancer. A375”, “Cells” for “They”, “compound, supernatants were collected for Collagen-1 ELISA assay and” for “compound,”
Collagen stimulating activity of immodulator peptides in HFF-1 dermal fibroblasts. Peptides were added to cells at 2 uM. COL1 immunoreactivity was measured in the supernatants of cultured cells by ELISA using a rabbit monoclonal anti-COL1 primary antibody (Abcam, Cambridge, MA). Control (buffer) value of immunoreactivity was set to 100.

SMILES | fluorescence of labeled IM3 with competing peptide [1] | percent survival of A375 cells (A375 cells; peptide 2 uM + Kin1400 4 uM (RIG-I agonist)) | percent survival of A375 cells (A375 cells; peptide 2 uM, Buffer) | fluorescence of labeled peptide [2] | fluorescence (iron binding) [3] | fluorescence of labeled IM3AVD with competing peptide [4] | binding to PI spot [5] | binding to PI(3,4,5)P3 spot [5] | binding to PI(4)P1 spot [5] | binding to PI(4,5)P2 spot [5] | Percent Flowthrough [6] | Percent retained [6] | fluorescence [7] | fluorescence ([8]; Calcium) | fluorescence ([8]; Copper) | fluorescence ([8]; Ferrous iron, 400 ng/well) | fluorescence ([8]; Zinc) | COL1 immunoreactivity in supernatant [9]
CC(C)[C@H](NC(=O)[C@H](C)NC(=O)[C@H](Cc1c[nH]c2ccccc12)NC(=O)[C@H](CS)NC(=O)[C@H](Cc1ccccc1)NC(=O)CNC(=O)[C@H](CCCNC(=N)N)NC(=O)[C@H](CCCCN)NC(=O)[C@H](CCCNC(=N)N)NC(=O)CNC(=O)[C@H](CCCCN)NC(=O)[C@H](CO)NC(=O)[C@@H]1CCCN1C(=O)[C@H](CCCNC(=N)N)NC(=O)[C@H](CS)NC(=O)[C@H](CCC(N)=O)NC(=O)[C@H](CCCCN)NC(=O)[C@H](CCCCN)NC(=O)[C@H](CCCCN)NC(=O)[C@H](Cc1ccc(O)cc1)NC(=O)[C@H](Cc1ccccc1)NC(=O)CNC(=O)[C@H](CCCCN)NC(=O)[C@@H](N)CCCCN)C(=O)N[C@@H](CC(=O)O)C(=O)O [IM3AVD] (H-KKGFYKKKQCRPSKGRKRGFCWAVD-OH; N-terminus and C-terminus assumed) | 10±28 | 12.5** percent | 96.0% | 137.7±11.8 | 434±29 | 9±19 |  |  |  |  |  |  |  |  |  |  |  | 
N=C(N)NCCC[C@H](NC(=O)[C@H](CCCNC(=N)N)NC(=O)[C@H](CCC(N)=O)NC(=O)CNC(=O)[C@H](CCC(N)=O)NC(=O)[C@H](CO)NC(=O)[C@H](CO)NC(=O)[C@H](CCCNC(=N)N)NC(=O)[C@H](CS)NC(=O)[C@H](CCC(N)=O)NC(=O)[C@H](CCCNC(=N)N)NC(=O)[C@H](CCCCN)NC(=O)[C@H](CCCNC(=N)N)NC(=O)[C@H](Cc1ccc(O)cc1)NC(=O)[C@H](Cc1ccccc1)NC(=O)CNC(=O)[C@H](CCCNC(=N)N)NC(=O)[C@@H](N)Cc1c[nH]cn1)C(=O)NCC(=O)N1CCC[C@H]1C(=O)N[C@@H](CS)C(=O)N[C@@H](Cc1c[nH]c2ccccc12)C(=O)O [IM6] (H-HRGFYRKRQCRSSQGQRRGPCW-OH; N-terminus and C-terminus assumed) |  |  |  | 85.9±14.9 |  |  | 0 | 0 | 0 | 1 | 2.0% | 98.0% | 587±192 | 15.1 ± 1.9** | 2.4 ± 2.4** | 20.6 ± 0.8** | 8.4 ± 0.4** | 112
